# Marks after values point to notes of the source that are not given here.
# Tests used:
# [1] = Ferric reducing antioxidant power (FRAP) assay; conditions: compounds at 50 μM; Trolox equivalent
# Experimental: The FRAP assay was determined in accordance with the instructions for the FRAP kit. The total antioxidant activity values were estimated using the Trolox equivalent antioxidant capacity test. Initially, the detection concentration of methanolic extract and different fractions was 80 μg/mL, and the detection concentration of compounds (1–23) was 50 μM. Then, 190 μL of FRAP working reagent was mixed with 10 μL sample and incubated at room temperature for 20 min. The absorbance was then measured using a microplate reader at 593 nm, and the scavenging activity was calculated according to Equation (3). The blank control group used DMSO to replace the sample. […] The analysis was performed in triplicates, 0.8054, 0.0134 was a constant.
# [2] = system: BSA; assay: Prevention of AAPH-induced protein oxidative damage; design: species or system Bovine; conditions: AAPH 160 mM; residual BSA
# Experimental: The protective activities of T. grandis methanolic extract, different fractions and its compounds 15 and 23 on protein oxidative damage were carried out using the method of Yang et al.. Initially, 20 μL BSA solutions (1 mg/mL) in PBS (0.1 M, pH 6.8) were mixed with different concentrations of fractions (40 μL) and compounds (40 μL) and incubated in water at 37 °C for 30 min. Then, 40 μL AAPH (160 mM) was added to the mixture and the reaction continued for 4 h. The control group used the same volume of PBS (0.1 M, pH 6.8) to replace AAPH. The pre-treated samples were added to 5 × SDS loading buffer and treated in water at 95 °C for 15 min. […] After electrophoresis, the gels were stained with Coomassie brilliant blue R-250 dye (0.25%, w/v), and then the gels were decolorized with the decolorizing solution. Finally, images were taken using the SDS-PAGE gel imaging system (ChampChemi 610, China) and the grayscale of Western blot was analyzed using Image J software.
# [3] = DPPH free radical scavenging assay; conditions: isolated compounds; half scavenging concentration; read-out: DPPH Assay SC50
# Experimental: The DPPH free radical scavenging activities of T. grandis methanolic extract, different fractions and its compounds were conducted according to Dr. Yang et al.. […] The absorbance was measured using a microplate reader at 517 nm, and ascorbic acid was used as a positive control. The DPPH scavenging activity was calculated according to the following formula: Scavenging activity (%) = [1 − (A1 − A2)/(A3 − A4)] × 100% (1) where A1 is the OD value of the tested samples, A2 is the OD value of the sample control, A3 is the OD value of the negative control and A4 is the OD value of the blank control. The analysis was performed in triplicates and the results were described as SC50 values.
# [4] = system: 3T3-L1 adipocytes; assay: Glucose uptake assay in 3T3-L1 adipocytes; type: cell-based, mouse; conditions: compounds at 40 µM, 48 h (Figure 11A(b))
# Experimental: Mouse 3T3-L1 preadipocyte cells were maintained in DMEM supplemented with 10% NBCS and 1% P/S at 37 °C in a humidified environment with 5% CO2, and then began starvation when the cells grew to 80% confluence (day 0). To facilitate differentiation to adipocytes, 2-days post-confluent cells were placed in 10% FBS DMEM supplemented with 1% P/S, 0.5 mM IBMX, 1 μM Dex, 1 μM Rosi and 100 nM insulin (day 2). For another three days (day 5), the medium was changed to high glucose DMEM containing 10% FBS, 1% P/S and 100 nM insulin for one day (day 6), and the 3T3-L1 preadipocytes were fully differentiated into mature adipocytes.
# Next, differentiated 3T3-L1 adipocytes at a density of 5 × 10^4 cells/well were cultured with DMEM in 96-well plates and divided into the blank control group, model group, insulin group (100 ng/mL), berberine group (10 μg/mL) and compound groups (40 μM). […] After 24 and 48 h of culture, glucose uptake was initiated by the addition of […] medium and 190 μL glucose detection reagent to each well, reaction at 37 °C for 15 min, and the glucose uptake was measured according to the operating instructions of the glucose content determination kit. Following the glucose uptake test, cell viability was detected by CellTiter96® Aqueous One Solution Cell Proliferation Assay. […] Absorbance was measured at 490 nm and relative cell viability was calculated according to Equation (7). […]
# [5] = ABTS radical cation scavenging assay (Trolox equivalent); conditions: compounds at 50 μM
# Experimental: The ABTS radical cation (ABTS•+) scavenging activities were conducted in accordance with the instructions for the ABTS kit. The total antioxidant activity values were estimated using the Trolox equivalent antioxidant capacity test. The detection concentration of methanolic extract and different fractions was 80 μg/mL, and the detection concentration of compounds (1–23) was 50 μM. […] Then, 190 μL of ABTS working reagent was mixed with 10 μL sample and incubated at room temperature for 5 min. The absorbance was then measured using a microplate reader at 734 nm, and the scavenging activity was calculated according to Equation (2). The blank control group used DMSO to replace the sample. […] The analysis was performed in triplicates, 1.424, 0.0012 was a constant.
# [6] = system: pBR322 DNA; assay: Prevention of AAPH-induced DNA oxidative damage; conditions: AAPH 20 mM; p < 0.0001 vs model
# Experimental: The effects of T. grandis methanolic extract, different fractions and its compounds 15, 19 and 23 on the prevention of DNA oxidative damage were carried out using the method of Han et al.. Initially, 8 μL pBR322 DNA (50 μg/mL) in PBS (0.1 M, pH 6.8) was mixed with different concentrations of T. grandis fractions and its compounds (12 μL) and incubated in water at 37 °C for 30 min. Then, 5 μL AAPH (20 mM) was added to the mixture and the reaction continued for 60 min. The control group used the same volume of PBS (0.1 M, pH 6.8) to replace AAPH. The pre-treated samples were mixed with 5 × DNA loading buffer, and the mixture (8 μL) was taken for 1.0% agarose gel electrophoresis for 25 min. After electrophoresis, the gels were stained with ethidium bromide for 20 min. Finally, images were taken using a DNA gel imaging system (ChampChemi 610, Beijing sage creation Co., Ltd. Beijing, China).
smiles,measurement,setting,value
"O=C(O)c1cc(O)c(O)c(O)c1 [Compound 23, gallic acid]",FRAP Assay,[1],1.03 ± 0.01 ^a mmol Trolox/L
same,concentration at which a protective effect against protein oxidative damage begins,[2],320 µM
same,EC50,[3],320 ± 70 nM
same,effect on glucose uptake,[4],significantly promote
same,ABTS Assay,[5],0.95 ± 0.02 ^a mmol Trolox/L
same,concentration at which a protective effect against DNA oxidative damage begins,[6],0.6 mM

# Reference: article PMC10044725, “Antioxidant, Anti-Inflammatory and Anti-Diabetic Activities of Tectona grandis Methanolic Extracts, Fractions, and Isolated Compounds” (Antioxidants, 2023)
